Values quoted from earlier work as cited in patent US20230023005A1, “IMPROVING THE PERFORMANCE OF PIGMENT-BASED DYES BY USING A PRETREAMENT AGENT” (Henkel AG & Co. KGaA, priority 2019, published 2023).

Tests used:
[1] = 25° C.
[2] = 5% solution in water

Q: With O=C([O-])C1=NN(c2ccc(S(=O)(=O)[O-])cc2)C(=O)C1N=Nc1ccc(S(=O)(=O)[O-])cc1.[Na+].[Na+].[Na+] (centres unmarked) [Acid Yellow 23, trisodium salt of 4,5-dihydro-5-oxo-1-(4-sulfophenyl)-4-((4-sulfophenyl)azo)-1H-pyrazole-3-carboxylic acid] as the molecule, how does the “solubility in water” value [1] read?
A: highly soluble in water

Q: For O=S(=O)([O-])c1ccc(N=Nc2c(O)ccc3ccccc23)cc1.[Na+] [Acid Orange 7, sodium salt of 4-[(2-hydroxy-1-naphthyl)azo]benzene sulphonate], which solubility in water [1] is on record?
A: more than 7 g/L

Q: With O=P([O-])(O)O.[K+] [Potassium dihydrogen phosphate] as the molecule, how does the “pH value of solution in water” value [2] read?
A: 4.4

Q: With Nc1cc(S(=O)(=O)[O-])cc2cc(S(=O)(=O)[O-])c(N=Nc3ccccc3)c(O)c12.[Na+].[Na+] [Acid Red 33, diantrium salt of 5-amino-4-hydroxy-3-(phenylazo)-naphthalene-2,7-disulphonate] as the molecule, how does the solubility in water [1] read?
A: 2500 µg/mL

Q: Which solubility in water [1] does the source give for O=C([O-])c1c(Cl)c(Cl)c(Cl)c(Cl)c1-c1c2c(Br)cc(=O)c(Br)c-2oc2c(Br)c(O)cc(Br)c12.O=C([O-])c1c(Cl)c(Cl)c(Cl)c(Cl)c1-c1c2c(Br)cc(=O)c(Br)c-2oc2c(Br)c(O)cc(Br)c12.[Na+].[Na+] [Acid Red 92, disodium salt of 3,4,5,6-tetrachloro-2-(1,4,5,8-tetrabromo-6-hydroxy-3-oxoxanthen-9-yl)benzoic acid] here?
A: greater than 10 g/L
